Results as given in patent US20240018158A1, “BRM TARGETING COMPOUNDS AND ASSOCIATED METHODS OF USE” (Prelude Therapeutics Incorporated, priority 2020, published 2024).

Assays:
SMARCA2 = SMARCA2 (Homo sapiens (Human), UniProt P51531); assay: SMARCA2 HiBiT degradation assay in HeLa cells; format: cell-based; conditions: 18 hours; for DC50: read-out: DC50 (SM2-HeLa) SMARCA2 degradation potency; for Dmax: read-out: Dmax % (SM2-HeLa) maximum SMARCA2 degradation within the concentrations tested
How it was run: (§1)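 HeLa monoclonal lines carrying a heterozygous HiBiT knock-in on SMARCA2 or SMARCA4 were seeded at 2500 cells/well in EMEM with 10% FBS. After 18 h compound exposure at 37 °C, Nano-Glo HiBiT lytic detection ran 30-60 min at RT before the luminescence read. Values are from curve fits.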

SMARCA4 = SMARCA4 (Homo sapiens (Human), UniProt P51532); assay: SMARCA4 HiBiT degradation assay in HeLa cells; format: cell-based; conditions: 18 hours; for DC50: read-out: DC50 (SM4-HeLa) SMARCA4 degradation potency; for Dmax: HeLa, read-out: Dmax % (SM4-HeLa) maximum SMARCA4 degradation within the concentrations tested
Chain of SMARCA4 (P51532 whole entry): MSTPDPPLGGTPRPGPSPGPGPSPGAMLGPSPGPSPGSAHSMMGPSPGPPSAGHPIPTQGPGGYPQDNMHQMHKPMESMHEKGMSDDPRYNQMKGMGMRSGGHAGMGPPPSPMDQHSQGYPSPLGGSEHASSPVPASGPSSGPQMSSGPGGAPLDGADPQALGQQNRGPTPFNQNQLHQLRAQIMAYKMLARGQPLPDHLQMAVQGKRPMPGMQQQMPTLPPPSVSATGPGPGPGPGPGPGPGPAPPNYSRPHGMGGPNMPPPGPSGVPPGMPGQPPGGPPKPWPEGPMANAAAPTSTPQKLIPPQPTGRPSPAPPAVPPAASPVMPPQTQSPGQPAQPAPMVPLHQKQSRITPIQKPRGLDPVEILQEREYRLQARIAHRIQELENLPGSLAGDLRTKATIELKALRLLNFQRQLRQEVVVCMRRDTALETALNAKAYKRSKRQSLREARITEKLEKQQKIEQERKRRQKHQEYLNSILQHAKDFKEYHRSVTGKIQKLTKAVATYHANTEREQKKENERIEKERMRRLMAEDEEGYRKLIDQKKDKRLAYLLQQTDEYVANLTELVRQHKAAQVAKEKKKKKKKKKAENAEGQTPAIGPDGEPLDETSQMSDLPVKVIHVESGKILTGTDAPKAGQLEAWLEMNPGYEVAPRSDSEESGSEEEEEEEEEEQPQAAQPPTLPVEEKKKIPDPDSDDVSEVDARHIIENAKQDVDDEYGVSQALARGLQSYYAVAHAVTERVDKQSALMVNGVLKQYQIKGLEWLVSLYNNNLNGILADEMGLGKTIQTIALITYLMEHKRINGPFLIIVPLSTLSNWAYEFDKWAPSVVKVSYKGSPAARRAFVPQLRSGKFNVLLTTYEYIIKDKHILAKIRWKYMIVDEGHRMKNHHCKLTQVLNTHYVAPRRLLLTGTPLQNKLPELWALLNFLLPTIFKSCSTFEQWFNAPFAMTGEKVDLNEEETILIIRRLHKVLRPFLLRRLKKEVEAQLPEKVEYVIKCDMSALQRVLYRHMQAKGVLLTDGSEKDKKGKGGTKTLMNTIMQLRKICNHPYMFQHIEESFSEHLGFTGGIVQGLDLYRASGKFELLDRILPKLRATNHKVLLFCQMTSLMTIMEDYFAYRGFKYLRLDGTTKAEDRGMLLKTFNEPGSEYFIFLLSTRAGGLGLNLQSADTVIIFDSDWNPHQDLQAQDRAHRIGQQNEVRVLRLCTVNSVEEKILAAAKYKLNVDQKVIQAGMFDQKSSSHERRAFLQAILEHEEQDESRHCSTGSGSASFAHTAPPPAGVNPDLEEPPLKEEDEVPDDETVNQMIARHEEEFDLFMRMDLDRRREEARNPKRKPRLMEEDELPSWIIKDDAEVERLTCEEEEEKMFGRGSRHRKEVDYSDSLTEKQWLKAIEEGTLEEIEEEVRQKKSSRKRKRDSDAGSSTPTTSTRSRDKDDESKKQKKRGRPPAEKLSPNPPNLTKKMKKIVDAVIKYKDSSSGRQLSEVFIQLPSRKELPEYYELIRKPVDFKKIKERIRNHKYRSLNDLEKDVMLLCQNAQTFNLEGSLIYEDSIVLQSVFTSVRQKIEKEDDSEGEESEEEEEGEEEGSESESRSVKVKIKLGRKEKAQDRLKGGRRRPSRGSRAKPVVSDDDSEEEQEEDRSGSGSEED
How it was run: as §1

Chain of SMARCA2 (P51531 whole entry): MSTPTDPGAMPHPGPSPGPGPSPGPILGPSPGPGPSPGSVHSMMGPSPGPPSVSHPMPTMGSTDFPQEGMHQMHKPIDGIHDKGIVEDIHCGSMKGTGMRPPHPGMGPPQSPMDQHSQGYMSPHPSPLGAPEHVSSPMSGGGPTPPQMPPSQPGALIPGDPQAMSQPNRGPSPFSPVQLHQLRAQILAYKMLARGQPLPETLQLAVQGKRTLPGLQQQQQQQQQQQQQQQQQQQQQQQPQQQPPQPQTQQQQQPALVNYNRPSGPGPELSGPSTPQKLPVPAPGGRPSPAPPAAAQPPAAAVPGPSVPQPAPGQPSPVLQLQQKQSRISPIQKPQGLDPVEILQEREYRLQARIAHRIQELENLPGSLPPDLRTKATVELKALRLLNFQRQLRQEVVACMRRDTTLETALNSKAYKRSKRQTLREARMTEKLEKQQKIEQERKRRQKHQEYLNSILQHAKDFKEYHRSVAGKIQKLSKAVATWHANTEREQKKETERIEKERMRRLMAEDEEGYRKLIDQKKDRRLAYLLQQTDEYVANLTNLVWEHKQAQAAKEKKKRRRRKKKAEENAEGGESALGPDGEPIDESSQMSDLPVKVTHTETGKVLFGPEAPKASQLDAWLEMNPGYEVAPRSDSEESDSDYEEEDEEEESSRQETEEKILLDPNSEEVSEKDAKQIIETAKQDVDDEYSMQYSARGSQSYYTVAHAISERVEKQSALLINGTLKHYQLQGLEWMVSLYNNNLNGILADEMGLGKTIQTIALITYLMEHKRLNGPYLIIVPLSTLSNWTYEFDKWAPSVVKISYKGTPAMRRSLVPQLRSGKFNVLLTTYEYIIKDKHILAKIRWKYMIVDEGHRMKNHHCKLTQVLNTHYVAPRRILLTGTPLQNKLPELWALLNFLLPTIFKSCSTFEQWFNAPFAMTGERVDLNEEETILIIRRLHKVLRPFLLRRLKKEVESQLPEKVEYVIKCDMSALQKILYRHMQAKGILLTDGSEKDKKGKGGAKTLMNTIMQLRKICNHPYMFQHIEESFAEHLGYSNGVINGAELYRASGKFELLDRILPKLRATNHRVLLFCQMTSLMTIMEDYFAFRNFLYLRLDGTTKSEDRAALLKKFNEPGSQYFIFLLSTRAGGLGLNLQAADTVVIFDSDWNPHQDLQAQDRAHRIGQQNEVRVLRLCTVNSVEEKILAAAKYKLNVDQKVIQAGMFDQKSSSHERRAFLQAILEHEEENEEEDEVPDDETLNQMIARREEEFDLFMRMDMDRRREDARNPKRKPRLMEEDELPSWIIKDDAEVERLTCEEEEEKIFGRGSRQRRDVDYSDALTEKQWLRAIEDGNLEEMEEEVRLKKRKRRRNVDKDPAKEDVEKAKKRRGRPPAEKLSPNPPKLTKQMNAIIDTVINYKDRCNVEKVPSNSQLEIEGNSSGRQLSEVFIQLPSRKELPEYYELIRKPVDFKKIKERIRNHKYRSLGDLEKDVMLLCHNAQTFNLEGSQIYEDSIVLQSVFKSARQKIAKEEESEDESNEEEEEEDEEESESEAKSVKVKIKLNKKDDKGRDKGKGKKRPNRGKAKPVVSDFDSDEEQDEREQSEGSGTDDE

SMILES | DC50 (SMARCA2) [nM] | Dmax (SMARCA2) [%] | DC50 (SMARCA4) [nM] | Dmax (SMARCA4) [%] | Dmax % (SM2-HeLa) maximum SMARCA2 degradation within the concentrations tested (SMARCA2) | Dmax % (SM4-HeLa) maximum SMARCA4 degradation within the concentrations tested (SMARCA4)
Cc1ncsc1-c1ccc([C@H](C)NC(=O)[C@@H]2C[C@@H](O)CN2C(=O)[C@@H](c2cc(OCCN3CCC(CN4CCN5c6cc(-c7ccccc7O)nnc6NC[C@H]5C4)CC3)no2)C(C)C)cc1 [Example 38, (2S,4R)-4-hydroxy-1-((R)-2-(3-(2-(4-(((S)-2-(2-hydroxyphenyl)-5,6,6a,7,9,10-hexahydro-8H-pyrazino[1′,2′:4,5]pyrazino[2,3-c]pyridazin-8-yl)methyl)piperidin-1-yl)ethoxy)isoxazol-5-yl)-3-methylbutanoyl)-N-((S)-1-(4-(4-methylthiazol-5-yl)phenyl)ethyl)pyrrolidine-2-carboxamide] | < 100 | > 75 | < 100 | > 75 |  | 
Cc1ncsc1-c1ccc([C@H](C)NC(=O)[C@@H]2C[C@@H](O)CN2C(=O)[C@@H](c2cc(OCCN3CCC(N4CCN5c6cc(-c7ccccc7O)nnc6NC[C@H]5C4)C(O)C3)no2)C(C)C)cc1 (stereo partly drawn) [Example 94, (2S,4R)-4-hydroxy-1-((2R)-2-(3-(2-(3-hydroxy-4-((S)-2-(2-hydroxyphenyl)-5,6,6a,7,9,10-hexahydro-8H-pyrazino[1′,2′:4,5]pyrazino[2,3-c]pyridazin-8-yl)piperidin-1-yl)ethoxy)isoxazol-5-yl)-3-methylbutanoyl)-N-((S)-1-(4-(4-methylthiazol-5-yl)phenyl)ethyl)pyrrolidine-2-carboxamide] | < 100 | > 75 | < 100 | > 75 |  | 
Cc1ncsc1-c1ccc([C@H](C)NC(=O)[C@@H]2C[C@@H](O)CN2C(=O)[C@@H](c2cc(OC(C)CN3CCCC(CN4CCN5c6cc(-c7ccccc7O)nnc6NC[C@H]5C4)CC3)no2)C(C)C)cc1 (stereo partly drawn) [Example 68, (2S,4R)-4-hydroxy-1-((2R)-2-(3-((1-(4-(((S)-2-(2-hydroxyphenyl)-5,6,6a,7,9,10-hexahydro-8H-pyrazino[1′,2′:4,5]pyrazino[2,3-c]pyridazin-8-yl)methyl)azepan-1-yl)propan-2-yl)oxy)isoxazol-5-yl)-3-methylbutanoyl)-N-((S)-1-(4-(4-methylthiazol-5-yl)phenyl)ethyl)pyrrolidine-2-carboxamide] | < 100 | > 75 | 100 to 1000 | > 75 |  | 
Cc1ncsc1-c1ccc([C@H](C)NC(=O)[C@@H]2C[C@@H](O)CN2C(=O)[C@@H](c2cc(OCCN3CCC(N4CCN5c6cc(-c7ccccc7O)nnc6NCC5(C)C4)C3)no2)C(C)C)cc1 (stereo partly drawn) [Example 71, (2S,4R)-4-hydroxy-1-((2R)-2-(3-(2-(3-(2-(2-hydroxyphenyl)-6a-methyl-5,6,6a,7,9,10-hexahydro-8H-pyrazino[1′,2′:4,5]pyrazino[2,3-c]pyridazin-8-yl)pyrrolidin-1-yl)ethoxy)isoxazol-5-yl)-3-methylbutanoyl)-N-((S)-1-(4-(4-methylthiazol-5-yl)phenyl)ethyl)pyrrolidine-2-carboxamide] | < 100 | > 75 | < 100 | > 75 |  | 
Cc1ncsc1-c1ccc([C@H](C)NC(=O)[C@@H]2C[C@@H](O)CN2C(=O)[C@@H](c2cc(O[C@@H](C)CN3CCC(N4CCN5c6cc(-c7ccccc7O)nnc6NC(C)C5C4)CC3)no2)C(C)C)cc1 (stereo partly drawn) [Example 97, (2S,4R)-4-hydroxy-1-((2R)-2-(3-(((2S)-1-(4-(2-(2-hydroxyphenyl)-6-methyl-5,6,6a,7,9,10-hexahydro-8H-pyrazino[1′,2′:4,5]pyrazino[2,3-c]pyridazin-8-yl)piperidin-1-yl)propan-2-yl)oxy)isoxazol-5-yl)-3-methylbutanoyl)-N-((S)-1-(4-(4-methylthiazol-5-yl)phenyl)ethyl)pyrrolidine-2-carboxamide] | < 100 | > 75 | < 100 | > 75 |  | 
Cc1ncsc1-c1ccc([C@H](C)NC(=O)[C@@H]2C[C@@H](O)CN2C(=O)[C@@H](c2cc(OCCN3CC(O)C(N4CCN5c6cc(-c7ccccc7O)nnc6NC[C@H]5C4)C3)no2)C(C)C)cc1 (stereo partly drawn) [Example 93, (2S,4R)-4-hydroxy-1-((2R)-2-(3-(2-(3-hydroxy-4-((S)-2-(2-hydroxyphenyl)-5,6,6a,7,9,10-hexahydro-8H-pyrazino[1′,2′:4,5]pyrazino[2,3-c]pyridazin-8-yl)pyrrolidin-1-yl)ethoxy)isoxazol-5-yl)-3-methylbutanoyl)-N-((S)-1-(4-(4-methylthiazol-5-yl)phenyl)ethyl)pyrrolidine-2-carboxamide] | < 100 | > 75 | < 100 | > 75 |  | 
Cc1ncsc1-c1ccc([C@H](C)NC(=O)[C@@H]2C[C@@H](O)CN2C(=O)C(c2cc(CCN(C)CCN3CCN4c5cc(-c6ccccc6O)nnc5NC[C@H]4C3)no2)C(C)C)cc1 (stereo partly drawn) [Example 34, (2S,4R)-4-hydroxy-1-(2-(3-(2-((2-((S)-2-(2-hydroxyphenyl)-5,6,6a,7,9,10-hexahydro-8H-pyrazino[1′,2′:4,5]pyrazino[2,3-c]pyridazin-8-yl)ethyl)(methyl)amino)ethyl)isoxazol-5-yl)-3-methylbutanoyl)N-((S)-1-(4-(4-methylthiazol-5-yl)phenyl)ethyl)pyrrolidine-2-carboxamide] | < 100 | > 75 | ≥ 10000 | ≤ 50 |  | 
Cc1ncsc1-c1ccc([C@H](C)NC(=O)[C@@H]2C[C@@H](O)CN2C(=O)[C@@H](c2cc(OCCN3CCC(N4CCC(N5CCN6c7cc(-c8ccccc8O)nnc7NC[C@H]6C5)C4)CC3)no2)C(C)C)cc1 (single isomer, unassigned) [Example 70] | < 100 |  | < 100 |  |  | 
Cc1ncsc1-c1ccc([C@H](C)NC(=O)[C@@H]2C[C@@H](O)CN2C(=O)[C@@H](c2cc(OCCN3CCC(C(=O)N4CCN5c6cc(-c7ccccc7O)nnc6NC[C@H]5C4)CC3)no2)C(C)C)cc1 [Example 98, (2S,4R)-4-hydroxy-1-((R)-2-(3-(2-(4-((S)-2-(2-hydroxyphenyl)-6,6a,7,8,9,10-hexahydro-5H-pyrazino[1′,2′:4,5]pyrazino[2,3-c]pyridazine-8-carbonyl)piperidin-1-yl)ethoxy)isoxazol-5-yl)-3-methylbutanoyl)-N-((S)-1-(4-(4-methylthiazol-5-yl)phenyl)ethyl)pyrrolidine-2-carboxamide] | < 100 | > 75 | < 100 | > 75 |  | 

The next lines start with the values.

DC50 (SMARCA2) [nM] | Dmax (SMARCA2) [%] | DC50 (SMARCA4) [nM] | Dmax (SMARCA4) [%] | Dmax % (SM2-HeLa) maximum SMARCA2 degradation within the concentrations tested (SMARCA2) | Dmax % (SM4-HeLa) maximum SMARCA4 degradation within the concentrations tested (SMARCA4) | SMILES
< 100 |  | < 100 |  | A/A (A = Dmax >75%) | A/A (A = Dmax >75%) | Cc1ncsc1-c1ccc([C@H](C)NC(=O)[C@@H]2C[C@@H](O)CN2C(=O)[C@@H](c2cc(O[C@H](C)CN3CCC(N4CCN5c6cc(-c7ccccc7O)nnc6NC[C@H]5C4)C3)no2)C(C)C)cc1 (single isomer, unassigned) [Example 51]
< 100 |  | 100 to 1000 |  |  |  | Cc1ncsc1-c1ccc([C@H](C)NC(=O)[C@@H]2C[C@@H](O)CN2C(=O)C(c2cc(O[C@H](C)C(=O)N3CCC(N4CCN5c6cc(-c7ccccc7O)nnc6NC[C@H]5C4)C3)no2)C(C)C)cc1 (stereo partly drawn) [Example 29, (2S,4R)-4-hydroxy-1-(2-(3-(((2R)-1-(3-((S)-2-(2-hydroxyphenyl)-5,6,6a,7,9,10-hexahydro-8H-pyrazino[1′,2′:4,5]pyrazino[2,3-c]pyridazin-8-yl)pyrrolidin-1-yl)-1-oxopropan-2-yl)oxy)isoxazol-5-yl)-3-methylbutanoyl)-N-((S)-1-(4-(4-methylthiazol-5-yl)phenyl)ethyl)pyrrolidine-2-carboxamide]
< 100 | > 75 | < 100 |  |  | B (B = 50%< Dmax <=75%) | CCC(CN1CCC(N2CCN3c4cc(-c5ccccc5O)nnc4NC[C@H]3C2)C1)Oc1cc(C(C(=O)N2C[C@H](O)C[C@H]2C(=O)N[C@@H](C)c2ccc(-c3scnc3C)cc2)C(C)C)on1 (stereo partly drawn) [Example 61, (2S,4R)-4-hydroxy-1-(2-(3-((1-(3-((S)-2-(2-hydroxyphenyl)-5,6,6a,7,9,10-hexahydro-8H-pyrazino[1′,2′:4,5]pyrazino[2,3-c]pyridazin-8-yl)pyrrolidin-1-yl)butan-2-yl)oxy)isoxazol-5-yl)-3-methylbutanoyl)-N-((S)-1-(4-(4-methylthiazol-5-yl)phenyl)ethyl)pyrrolidine-2-carboxamide]
< 100 | > 75 | < 100 | 50 to 75 |  |  | CCC(CN1CCC(N2CCN3c4cc(-c5ccccc5O)nnc4NC[C@H]3C2)CC1)Oc1cc([C@H](C(=O)N2C[C@H](O)C[C@H]2C(=O)N[C@@H](C)c2ccc(-c3scnc3C)cc2)C(C)C)on1 (stereo partly drawn) [Example 60, (2S,4R)-4-hydroxy-1-(2-(3-((1-(4-((S)-2-(2-hydroxyphenyl)-5,6,6a,7,9,10-hexahydro-8H-pyrazino[1′,2′:4,5]pyrazino[2,3-c]pyridazin-8-yl)piperidin-1-yl)butan-2-yl)oxy)isoxazol-5-yl)-3-methylbutanoyl)-N-((S)-1-(4-(4-methylthiazol-5-yl)phenyl)ethyl)pyrrolidine-2-carboxamide]
< 100 | > 75 | 100 to 1000 | 50 to 75 |  |  | Cc1ncsc1-c1ccc([C@H](C)NC(=O)[C@@H]2C[C@@H](O)CN2C(=O)[C@@H](c2cc(O[C@@H](C)C(=O)N3CCC(N4CCN5c6cc(-c7ccccc7O)nnc6NC[C@H]5C4)CC3)no2)C(C)C)cc1 [Example 27, (2S,4R)-4-hydroxy-1-((R)-2-(3-(((S)-1-(4-((S)-2-(2-hydroxyphenyl)-5,6,6a,7,9,10-hexahydro-8H-pyrazino[1′,2′:4,5]pyrazino[2,3-c]pyridazin-8-yl)piperidin-1-yl)-1-oxopropan-2-yl)oxy)isoxazol-5-yl)-3-methylbutanoyl)N-((S)-1-(4-(4-methylthiazol-5-yl)phenyl)ethyl)pyrrolidine-2-carboxamide]
